Measured values taken from ChEMBL document CHEMBL5058564, “EUbOPEN Chemogenomics Library 2 (Incucyte)” (2022).

Legend:
Format in all cases: toxicity, cell-based
U2OS = experiment: Incucyte cell viability with U2OS; settings: human, 10 µM, compound concentration 10 uM
Fibroblast = experiment: Incucyte cell viability with human fibroblast; settings: 10 µM, compound concentration 10 uM
HEK-293T = experiment: Incucyte cell viability with HEK293T; settings: human, 10 µM, compound concentration 10 uM
[1] = 6 h, replicate number 1, timepoint 6 hours
[2] = 6 h, replicate number 2, timepoint 6 hours
[3] = 12 h, replicate number 1, timepoint 12 hours
[4] = 12 h, replicate number 2, timepoint 12 hours
[5] = 18 h, replicate number 1, timepoint 18 hours
[6] = 18 h, replicate number 2, timepoint 18 hours
[7] = 24 h, replicate number 1, timepoint 24 hours
[8] = 24 h, replicate number 2, timepoint 24 hours
[9] = 0 h, replicate number 1, timepoint 0 hours
[10] = 0 h, replicate number 2, timepoint 0 hours
Also: unitless GR value; below 1 slowed growth and below 0 cell loss.

| SMILES | Growth Rate (U2OS; [1]) | Growth Rate (U2OS; [3]) | Growth Rate (U2OS; [6]) | Growth Rate (U2OS; [7]) | Growth Rate (U2OS; [8]) | Growth Rate (Fibroblast; [1]) | Growth Rate (Fibroblast; [2]) | Growth Rate (Fibroblast; [3]) | Growth Rate (Fibroblast; [4]) | Growth Rate (Fibroblast; [5]) | Growth Rate (Fibroblast; [6]) | Growth Rate (Fibroblast; [7]) | Growth Rate (Fibroblast; [8]) | Growth Rate (HEK-293T; [1]) | Growth Rate (HEK-293T; [3]) | Growth Rate (HEK-293T; [4]) | Growth Rate (HEK-293T; [5]) | Growth Rate (HEK-293T; [7]) | Growth Rate (Fibroblast; [10]) | Growth Rate (HEK-293T; [9]) | further results |
| --- | --- | --- | --- | --- | --- | --- | --- | --- | --- | --- | --- | --- | --- | --- | --- | --- | --- | --- | --- | --- | --- |
| NCCc1cn(S(=O)(=O)c2c(Cl)nc3sccn23)c2ccccc12.O=C(O)C(=O)O | -0.18 | 0.52 | 0.45 | 0.87 | 0.57 | -0.77 | -0.79 | -0.66 | -0.5 | -0.67 | -0.42 | -0.67 | -0.31 | -0.34 | 0.22 | 0.08 | 0.4 | 0.57 | – | – | Growth Rate (U2OS; [2]): 0.34; Growth Rate (U2OS; [4]): 0.36; Growth Rate (U2OS; [5]): 0.72; Growth Rate (HEK-293T; [6]): 0.51; Growth Rate (HEK-293T; [8]): 0.52 |
| Br.Br.c1ncc(CC2CCNCC2)[nH]1 | 0.57 | 0.9 | – | – | – | 0.88 | 0.53 | 0.69 | 0.81 | 0.72 | 0.93 | 0.77 | 0.76 | 0.8 | 0.99 | 0.73 | 0.81 | 0.95 | 0.06 | 0.53 | Growth Rate (U2OS; [9]): 0.94; Growth Rate (Fibroblast; [9]): 0.49; Growth Rate (HEK-293T; [10]): 0.07; Growth Rate (HEK-293T; [6]): 0.93; Growth Rate (HEK-293T; [8]): 0.94 |
| CCCCCCCCc1ccc(CCC(N)(CO)CO)cc1 [FINGOLIMOD] | -0.97 | -0.74 | – | 0.13 | -0.13 | -0.91 | -0.95 | -0.88 | -0.71 | -0.82 | -0.59 | -0.7 | -0.42 | -0.74 | -0.52 | -0.63 | -0.41 | -0.33 | – | – | Growth Rate (U2OS; [2]): -0.45; Growth Rate (U2OS; [4]): -0.31; Growth Rate (U2OS; [5]): -0.23; Growth Rate (HEK-293T; [2]): -0.91; Growth Rate (HEK-293T; [6]): -0.5; Growth Rate (HEK-293T; [8]): -0.4 |
| Nc1nccc(-c2ccn3c(N)nccc23)n1 | – | – | 0.85 | 0.98 | 0.82 | – | – | – | 0.84 | – | 0.76 | – | 0.72 | – | – | – | 0.93 | 0.76 | -0.24 | -0.7 | Growth Rate (U2OS; [9]): 0.63; Growth Rate (U2OS; [10]): 0.39; Growth Rate (U2OS; [2]): 0.89; Growth Rate (U2OS; [4]): 0.92; Growth Rate (Fibroblast; [9]): -0.59; Growth Rate (HEK-293T; [10]): 0.28; Growth Rate (HEK-293T; [8]): 1 |
| COc1cc(NC(=O)CCN2CCC(OC(=O)Nc3ccccc3-c3ccccc3)CC2)c(Cl)cc1CNC[C@H](O)c1ccc(O)c2[nH]c(=O)ccc12 [BATEFENTEROL] | – | – | 0.95 | 1 | 0.9 | – | – | – | – | – | – | – | – | – | 0.88 | 0.79 | 0.8 | – | 0.38 | -0.23 | Growth Rate (U2OS; [10]): -1; Growth Rate (U2OS; [5]): 0.93; Growth Rate (Fibroblast; [9]): -0.65; Growth Rate (HEK-293T; [10]): 0.01; Growth Rate (HEK-293T; [6]): 1 |
| O=C(N[C@@H]1CC[C@@H](c2cccc(F)c2F)CN(CC(F)(F)F)C1=O)N1CCC(n2c(=O)[nH]c3ncccc32)CC1 [TELCAGEPANT] | 0.8 | – | 0.98 | 0.86 | 0.95 | 0.18 | -0.28 | 0.01 | 0.39 | 0.11 | 0.66 | 0.22 | 0.72 | 0.32 | 0.66 | 0.94 | 0.54 | 0.81 | 0.95 | – | Growth Rate (U2OS; [10]): -1; Growth Rate (HEK-293T; [2]): 0.77; Growth Rate (HEK-293T; [6]): 0.98 |
| Cc1ccc(C(C)(O)c2nc3ccccc3s2)c(C)c1 (configuration not stated) | – | – | 0.95 | – | – | 0.67 | – | – | – | – | – | – | – | – | 0.99 | – | – | – | 0.92 | 0.98 | Growth Rate (U2OS; [9]): -0.06; Growth Rate (U2OS; [2]): 0.88; Growth Rate (U2OS; [5]): 0.99; Growth Rate (Fibroblast; [9]): 0.44; Growth Rate (HEK-293T; [10]): 0.84 |
| CCCN(CCc1cccs1)[C@H]1CCc2c(O)cccc2C1 [ROTIGOTINE] | 0.95 | 0.96 | – | – | – | 0.1 | – | 0.84 | – | – | – | – | – | – | – | – | – | 0.99 | -0.39 | 0.77 | Growth Rate (U2OS; [9]): 0.77; Growth Rate (HEK-293T; [10]): -1 |
| N#Cc1c(Oc2cccc(OS(=O)(=O)CCCC(F)(F)F)c2)cccc1C(F)(F)F | – | 0.86 | 0.81 | – | 0.96 | -0.53 | -0.47 | -0.11 | -0.08 | -0.21 | 0.02 | -0.18 | 0 | -0.16 | 0 | 0.28 | -0.01 | 0.06 | – | – | Growth Rate (U2OS; [10]): 0.57; Growth Rate (U2OS; [4]): 0.82; Growth Rate (Fibroblast; [9]): 0.09; Growth Rate (HEK-293T; [2]): 0.24; Growth Rate (HEK-293T; [6]): 0.31; Growth Rate (HEK-293T; [8]): 0.55 |
| Brc1c(N=C2NCCN2)ccc2nccnc12.O=C(O)C(O)C(O)C(=O)O | 0.6 | 0.41 | 0.91 | 0.89 | – | 0.39 | 0.7 | 0.82 | 0.94 | 0.86 | 0.83 | 0.87 | 0.91 | 0.47 | 0.79 | 0.72 | 0.92 | 0.83 | 0.6 | 0.76 | Growth Rate (U2OS; [9]): 0.29; Growth Rate (U2OS; [5]): 0.78; Growth Rate (HEK-293T; [10]): 0.92; Growth Rate (HEK-293T; [2]): 0.95; Growth Rate (HEK-293T; [8]): 0.88 |
| Cc1nnc2n1-c1sc(CCC(=O)N3CCOCC3)cc1C(c1ccccc1Cl)=NC2 [APAFANT] | 0.99 | – | 0.75 | – | 0.93 | 0.26 | 0.74 | 0.81 | 0.51 | – | 0.73 | – | 0.95 | – | – | – | – | – | 0.77 | 0.99 | Growth Rate (U2OS; [2]): 0.76; Growth Rate (U2OS; [4]): 0.88 |
